Several values for one entry are separate records, joined by “and”; a condition that tells them apart may be missing. Identical values can stand only once. ± gives the expanded uncertainty stated by the source.
Settings: Liquid, Closed cell (Static) method

OCCO [1,2-ethanediol]
vapor or sublimation pressure (307.7 K): 0.028 ± 0.002 kPa
vapor or sublimation pressure (312.6 K): 0.041 ± 0.004 kPa
vapor or sublimation pressure (316.5 K): 0.055 ± 0.006 kPa
vapor or sublimation pressure (318.8 K): 0.061 ± 0.006 kPa
vapor or sublimation pressure (322.1 K): 0.077 ± 0.008 kPa
vapor or sublimation pressure (326.1 K): 0.107 ± 0.01 kPa
vapor or sublimation pressure (328.2 K): 0.124 ± 0.012 kPa
vapor or sublimation pressure (334.5 K): 0.196 ± 0.026 kPa
vapor or sublimation pressure (335.2 K): 0.201 ± 0.028 kPa
vapor or sublimation pressure (340.2 K): 0.278 ± 0.039 kPa
vapor or sublimation pressure (347.9 K): 0.454 ± 0.065 kPa
vapor or sublimation pressure (359.2 K): 0.9 ± 0.12 kPa
vapor or sublimation pressure (367.9 K): 1.483 ± 0.19 kPa
vapor or sublimation pressure (373.4 K): 1.95 ± 0.27 kPa
vapor or sublimation pressure (384.5 K): 3.467 ± 0.47 kPa

O=CCO [2-hydroxyacetaldehyde]
vapor or sublimation pressure (295.85 K): 0.0037 ± 0.0004 kPa
vapor or sublimation pressure (305.1 K): 0.009 ± 0.0011 kPa
vapor or sublimation pressure (305.51 K): 0.0096 ± 0.0024 kPa
vapor or sublimation pressure (319.5 K): 0.0335 ± 0.0057 kPa
vapor or sublimation pressure (319.84 K): 0.0335 ± 0.0057 kPa
vapor or sublimation pressure (322.38 K): 0.0368 ± 0.0057 kPa
vapor or sublimation pressure (323.64 K): 0.0458 ± 0.0069 kPa
vapor or sublimation pressure (327.73 K): 0.062 ± 0.011 kPa
vapor or sublimation pressure (333.04 K): 0.0984 ± 0.02 kPa
vapor or sublimation pressure (339.32 K): 0.153 ± 0.018 kPa
vapor or sublimation pressure (340.91 K): 0.17 ± 0.02 kPa
vapor or sublimation pressure (341.95 K): 0.182 ± 0.024 kPa
vapor or sublimation pressure (342.82 K): 0.198 ± 0.03 kPa
vapor or sublimation pressure (346.83 K): 0.253 ± 0.036 kPa
vapor or sublimation pressure (355.98 K): 0.486 ± 0.052 kPa

CC(=O)CO [acetol]
vapor or sublimation pressure (273.22 K): 0.127 ± 0.018 kPa
vapor or sublimation pressure (275.48 K): 0.136 ± 0.018 kPa
vapor or sublimation pressure (277.78 K): 0.162 ± 0.022 kPa
vapor or sublimation pressure (278.55 K): 0.167 ± 0.022 kPa and 0.172 ± 0.022 kPa
vapor or sublimation pressure (280.9 K): 0.201 ± 0.084 kPa
vapor or sublimation pressure (281.69 K): 0.205 ± 0.026 kPa and 0.21 ± 0.026 kPa
vapor or sublimation pressure (289.86 K): 0.356 ± 0.042 kPa
vapor or sublimation pressure (290.7 K): 0.363 ± 0.042 kPa and 0.36 ± 0.042 kPa
vapor or sublimation pressure (293.26 K): 0.431 ± 0.05 kPa
vapor or sublimation pressure (295.86 K): 0.516 ± 0.06 kPa and 0.495 ± 0.058 kPa
vapor or sublimation pressure (296.74 K): 0.531 ± 0.062 kPa
vapor or sublimation pressure (300.3 K): 0.617 ± 0.07 kPa
vapor or sublimation pressure (301.2 K): 0.642 ± 0.072 kPa
vapor or sublimation pressure (302.11 K): 0.717 ± 0.08 kPa
vapor or sublimation pressure (303.03 K): 0.746 ± 0.084 kPa
vapor or sublimation pressure (303.95 K): 0.817 ± 0.092 kPa
